Source: patent US20080153873A1, “DIHYDROBENZOFURANYL DERIVATIVES AND METHODS OF THEIR USE” (Wyeth, priority 2006, published 2008)
Where a name gives a salt, the structure may show the parent alone.

molecular target: T1, human hNET (Homo sapiens, UniProt P23975); assay: Functional Norepinephrine (NE) Uptake Assay in MDCK-Net6 cells; format: cell-based; details: % inhibition of NE uptake @ 6 μM; MDCK-Net6 cells; read-out: hNET IC50 (nM) (% Inhibition)
T1 construct: expressed in transfected cells; host or cells: MDCK-Net6 cells (MDCK, stably transfected)
T1 sequence (P23975 whole entry): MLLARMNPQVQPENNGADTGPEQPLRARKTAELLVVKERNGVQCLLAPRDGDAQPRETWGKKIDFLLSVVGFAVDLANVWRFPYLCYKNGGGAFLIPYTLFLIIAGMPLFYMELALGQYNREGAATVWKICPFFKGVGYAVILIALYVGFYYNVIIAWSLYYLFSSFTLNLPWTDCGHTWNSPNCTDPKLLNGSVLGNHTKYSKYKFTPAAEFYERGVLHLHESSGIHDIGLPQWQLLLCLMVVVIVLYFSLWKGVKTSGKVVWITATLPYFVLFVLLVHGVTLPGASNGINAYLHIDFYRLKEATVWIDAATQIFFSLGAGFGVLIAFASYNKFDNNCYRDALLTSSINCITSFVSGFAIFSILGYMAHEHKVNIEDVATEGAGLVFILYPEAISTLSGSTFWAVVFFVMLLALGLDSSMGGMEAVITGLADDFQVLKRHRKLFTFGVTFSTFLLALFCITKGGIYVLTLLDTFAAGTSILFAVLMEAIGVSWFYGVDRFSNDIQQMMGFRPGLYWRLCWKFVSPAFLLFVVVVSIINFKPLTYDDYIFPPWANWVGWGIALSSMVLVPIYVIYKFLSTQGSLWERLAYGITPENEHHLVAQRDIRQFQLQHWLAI
Method: MDCK-Net6 cells, stably transfected with human hNET (Pacholczyk, T., R. D. Blakely, and S. G. Amara, Nature, 1991, 350(6316): p. 350-4) were cultured in growth medium containing high glucose DMEM (Gibco, Cat. No. 11995), 10% FBS (dialyzed, heat-inactivated, US Bio-Technologies, Lot FBD1129HI) and 500 μg/ml G418 (Gibco, Cat. No. 10131). Cells were plated at 300,000 T75 flask and cells were split twice weekly.
On day 1, cells were plated at 3,000 cells/well in growth medium and maintained in a cell incubator (37° C., 5% CO2). On day 2, growth medium was replaced with 200 μl of assay buffer (25 mM HEPES; 120 mM NaCl; 5 mM KCl; 2.5 mM CaCl2; 1.2 mM MgSO4; 2 mg/ml glucose (pH 7.4, 37° C.)) containing 0.2 mg/ml ascorbic acid and 1 μM pargyline. For screening, 25 μl of compound in 4% DMSO was added directly to each well and the plate is incubated for 5 minutes at 37° C.
To initiate the norepinephrine reuptake, 16 nM (final concentration) of ^3H norepinephrine (specific activity; 40-80 Ci/mmol) in assay buffer was delivered in 25 μl aliquots to each well, and the plates were incubated for 5 minutes at 37° C. The reaction was aspirated from the plate and the cells washed with 250 μl of 50 mM Tris Buffer (4° C.). The plates were left to dry for 1 hour. The cells were lysed using 0.25 M NaOH solution then placed on a shake table and vigorously shaken for 10 minutes. After cell lysis, 100 μl of Microscint 20 (PerkinElmer; #87-051101) were added to the plates and the plates were sealed with film tape and replaced on the shake table for a minimum of 10 minutes. The plates were counted in a TopCount counter (PerkinElmer).
For screening single point determinations, each compound plate contains at least 3 control wells (maximum NE reuptake determinant) and 3 non-specific wells determined by adding 20 μM of desipramine (minimum NE reuptake determinant). Determination of active compounds are calculated using a Microsoft Excel spread sheet applying the following formula:
% inhibition=[1−((mean cpm test compound wells−mean cpm non-specific wells)/(mean cpm control wells−mean cpm non-specific wells))]×100
For IC50 determination, raw cpm values were generated in a data file from the TopCount counter. The data was organized using Microsoft Excel and transferred into PRIZM graphing and statistical program, which calculates the estimated IC50 value. Calculation of IC50 values were made using non-linear regression analysis with a sigmoidal dose response with variable slope. The statistical program used wells containing ^3H norepinephrine only as the maximal NE reuptake determinant and wells containing ^3H norepinephrine plus 20 μM desipramine as the minimal NE reuptake determinant (non-specific determinant). Estimation of the IC50 value was completed on a log scale and the line was fit between the maximal and minimal NE reuptake values.

SMILES	inhibition at 6 µM
CNCC1Oc2cc(F)ccc2C1N1C(=O)C(C)(C)c2ccccc21 (stereo not drawn) [Example 14, 1-{6-fluoro-2-[(methylamino)methyl]-2,3-dihydro-1-benzofuran-3-yl}-3,3-dimethyl-1,3-dihydro-2H-indol-2-one hydrochloride]	54%
CCNC[C@@H]1Oc2ccccc2[C@H]1N1CC(C)(C)c2cccc(F)c21 [Example 8, N-{[(2S,3R)-3-(7-fluoro-3,3-dimethyl-2,3-dihydro-1H-indol-1-yl)-2,3-dihydro-1-benzofuran-2-yl]methyl}ethanamine hydrochloride]	42%
CN(C)C[C@@H]1Oc2ccccc2[C@H]1N1CC(C)(C)c2cccc(F)c21 [Example 7, 1-[(2S,3R)-3-(7-fluoro-3,3-dimethyl-2,3-dihydro-1H-indol-1-yl)-2,3-dihydro-1-benzofuran-2-yl]-N,N-dimethylmethanamine hydrochloride]	37%
CC(C)NC[C@@H]1Oc2ccccc2[C@H]1N1CC(C)(C)c2cccc(F)c21 [Example 6, N-{[(2S,3R)-3-(7-fluoro-3,3-dimethyl-2,3-dihydro-1H-indol-1-yl)-2,3-dihydro-1-benzofuran-2-yl]methyl}propan-2-amine hydrochloride]	30%
CNCC1Oc2ccccc2C1n1ccc2ccccc21 (racemic) [Example 11, (+/−)-1-[3-(1H-indol-1-yl)-2,3-dihydro-1-benzofuran-2-yl]-N-methyl methanamine hydrochloride]	42%
CNC[C@@H]1Oc2ccccc2[C@H]1N1CC(C)(C)c2cccc(F)c21 [Example 5, 1-[(2S,3R)-3-(7-fluoro-3,3-dimethyl-2,3-dihydro-1H-indol-1-yl)-2,3-dihydro-1-benzofuran-2-yl]-N-methylmethanamine hydrochloride]	63%

same assay, conditions: MDCK-Net6 cells stably transfected with hNET; 3H norepinephrine uptake, 16 nM

SMILES	IC50
CNCC1Oc2cc(F)ccc2C1n1c(=O)n(C(C)C)c2cccc(F)c21 (racemic) [Example 18, 4-Fluoro-3-{(2SR,3RS)-6-fluoro-2-[(methylamino)methyl]-2,3-dihydro-1-benzofuran-3-yl}-1-isopropyl-1,3-dihydro-2H-benzimidazol-2-one hydrochloride]	3800 nM
CNCC1Oc2ccccc2C1N(C)c1ccccc1 (stereo not drawn) [Example 17, N-methyl-2-[(methylamino)methyl]-N-phenyl-2,3-dihydro-1-benzofuran-3-amine hydrochloride]	3550 nM
CNC[C@H]1Oc2ccc(F)cc2[C@@H]1N1CC(C)(C)c2cccc(F)c21 [Example 13, 1-[(2R,3S)-5-fluoro-3-(7-fluoro-3,3-dimethyl-2,3-dihydro-1H-indol-1-yl)-2,3-dihydro-1-benzofuran-2-yl]-N-methylmethanamine hydrochloride]	88.5 nM
CNCC1Oc2ccccc2C1N1CCCc2ccccc21 (stereo not drawn) [Example 16, 1-[3-(3,4-dihydroquinolin-1(2H)-yl)-2,3-dihydro-1-benzofuran-2-yl]-N-methylmethanamine hydrochloride]	811 nM
CNC[C@@H]1Oc2c(F)cccc2[C@H]1N1C(=O)C(C)(C)c2cccc(F)c21 [Example 12, 7-fluoro-1-{(2S,3R)-7-fluoro-2-[(methylamino)methyl]-2,3-dihydro-1-benzofuran-3-yl}-3,3-dimethyl-1,3-dihydro-2H-indol-2-one hydrochloride]	1030 nM
CNC[C@@H]1Oc2cc(F)ccc2[C@H]1n1c(=O)n(C(C)C)c2cccc(F)c21 (single isomer, unassigned) [Example 19, hydrochloride]	12400 nM
CNC[C@H]1Oc2cc(F)ccc2[C@@H]1n1c(=O)n(C(C)C)c2cccc(F)c21 (single isomer, unassigned) [Example 20, hydrochloride]	1750 nM
CCOc1ccccc1O[C@H]1c2ccccc2O[C@@H]1CNC [Example 9, 1-[(2R,3S)-3-(2-ethoxyphenoxy)-2,3-dihydro-1-benzofuran-2-yl]-N-methylmethanamine hydrochloride]	846 nM
CC1(C)CN([C@H]2c3ccccc3O[C@@H]2CN)c2c(F)cccc21 [Example 4, 1-[(2R,3S)-3-(7-fluoro-3,3-dimethyl-2,3-dihydro-1H-indol-1-yl)-2,3-dihydro-1-benzofuran-2-yl]methanamine hydrochloride]	95 nM
CNCC1Oc2ccccc2C1n1ccc2ccccc21 (racemic) [Example 11, (+/−)-1-[3-(1H-indol-1-yl)-2,3-dihydro-1-benzofuran-2-yl]-N-methyl methanamine hydrochloride]	301 nM
CN(C)C[C@H]1Oc2ccccc2[C@@H]1N1CC(C)(C)c2cccc(F)c21 [Example 3, 1-[(2R,3S)-3-(7-fluoro-3,3-dimethyl-2,3-dihydro-1H-indol-1-yl)-2,3-dihydro-1-benzofuran-2-yl]-N,N-dimethylmethanamine hydrochloride]	319 nM
CNCC1Oc2ccccc2C1N1C(=O)C(C)(C)c2ccccc21 (stereo not drawn) [Example 15, 3,3-dimethyl-1-{2-[(methylamino)methyl]-2,3-dihydro-1-benzofuran-3-yl}-1,3-dihydro-2H-indol-2-one hydrochloride]	1140 nM
CNC[C@H]1Oc2ccccc2[C@@H]1N1CC(C)(C)c2cc(F)ccc21 [Example 2, 1-[(2R,3S)-3-(5-fluoro-3,3-dimethyl-2,3-dihydro-1H-indol-1-yl)-2,3-dihydro-1-benzofuran-2-yl]-N-methylmethanamine hydrochloride]	343 nM
CNCC1Oc2ccccc2C1N1CCc2ccccc21 (racemic) [Example 10, (+/−)-1-[3-(2,3-dihydro-1H-indol-1-yl)-2,3-dihydro-1-benzofuran-2-yl]-N-methylmethanamine hydrochloride]	244 nM
CNC[C@H]1Oc2ccccc2[C@@H]1N1CC(C)(C)c2cccc(F)c21 [Example 1, 1-[(2R,3S)-3-(7-fluoro-3,3-dimethyl-2,3-dihydro-1H-indol-1-yl)-2,3-dihydro-1-benzofuran-2-yl]-N-methylmethanamine hydrochloride]	27.2 nM
